Patent publication US20040072146A1, “Mechanism of mitochondrial membrane permeabilization by HIV-1 Vpr, mimetics of Vpr and methods of screening active molecules having the ability to alter and/or prevent and/or mimic the interaction of Vpr with ANT” (priority 2000, published 2004)

Legend:
ANT [1] = molecular target: T1, ANT (Rattus norvegicus, UniProt Q05962); assay type: binding; settings: purified detergent-solubilized ANT
T1 construct: from tissue
Text: A Plasma surface resonance sensorgrams of the interaction of ANT with Vpr52-96, Vpr52-96[R73A, 80A] or an irrelevant control (Co).
B. Langmuir isotherm determined at different concentrations of ANT on sensorgrams corrected by substraction of the blank (sensorgrams obtained with Vpr52-96[R73A, 80A]).

ANT-proteoliposomes = molecular target: T2, ANT-proteoliposomes (Rattus norvegicus, UniProt Q05962); assay: FITC-labeled Vpr52-96 binding onto ANT-liposomes and plain liposomes
T2 construct: ANT is purified from rat heart and reconstituted in liposomes; from tissue; host or cells: rat heart (ANT)
T2 sequence (Q05962 1-298): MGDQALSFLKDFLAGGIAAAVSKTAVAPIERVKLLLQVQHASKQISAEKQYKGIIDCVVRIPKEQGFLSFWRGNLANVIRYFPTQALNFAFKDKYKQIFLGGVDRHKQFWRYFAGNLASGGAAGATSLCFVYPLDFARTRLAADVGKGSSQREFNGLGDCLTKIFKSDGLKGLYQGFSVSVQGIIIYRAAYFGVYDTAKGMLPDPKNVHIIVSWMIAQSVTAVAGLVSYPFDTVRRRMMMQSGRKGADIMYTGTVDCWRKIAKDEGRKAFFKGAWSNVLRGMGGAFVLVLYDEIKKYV
Description: A. Dose-response curve of FITC-labeled Vpr52-96 binding onto ANT-liposomes and plain liposomes.
B. Binding of FITC-Vpr52-96 (2 μM) to plain liposomes, ANT-proteoliposomes, in the presence or absence of BA (50 μM).

ANT [2] = molecular target: T1, ANT; assay: Single channel recordings in planar lipid bilayers; assay type: biochemical
Description: FIG. 3 presents electrophysiological properties of Vpr52-96 and ANT in planar lipid bilayers. Current fluctuations of Vpr52-96 (80 nM, +150 mV), Vpr52-96(0.4 nM, +100 mV), ANT (1 nM, +110 mV) and Vpr52-96+ANT (0.4:1 nM, +115 mV) and associated histograms (right) of conductance levels are shown.
Current fluctuations of Vpr52-96 (80 nM, +150 mV), Vpr52-96 (0.4 nM, +100 mV), ANT (1 nM, +110 mV) and Vpr52-96+ANT (0.4:1 nM, 115 mV) after incorporation into synthetic membranes. Single channel recordings were performed using the “Tip-Dip” technique. The recordings shown are representative for at least three independent determinations.
B. Statistical analysis of conductances obtained in A. Results were expressed as current distributions at different voltages. Conductances (γ; in picosiemens, pS) are calculated by division of current by voltage.

purified mitochondria [3] = assay: Respirometry of purified mitochondria, respiratory control; assay type: biochemical; settings: 1 μM peptide, 10 min
Description: A. Oxygen consumption curves after addition of the indicated agents. Trace a: control mitochondria (no pretreatment). Trace b: mitochondria pretreated for 10 min with 1 μM Vpr52-96. Numbers along the traces are nmol of O2 consumed min^−1 mg^31 1 protein.
B. Respiratory control (RC) values calculated by dividing oxygen consumption in the presence of CCCP by that measured with oligomycin (determined as in A), 10 min after addition of 1 μM of Vpr-derived peptides (mean values of 3 determinations).

purified mitochondria [4] = assay: Inner versus outer mitochondrial membrane permeabilization (NADH oxidation, cytochrome c oxidation); assay type: biochemical
Description: A. Respirometry performed after addition of NADH and Vpr52-96 (1 μM). Numbers along the traces are nmol of O2 consumed min^−1 mg^−1 protein.
B. Kinetics of Vpr52-96 induced inner membrane permeabilization to NADH and outer membrane permeabilization to reduced cytochrome c. Oxygen consumption was determined in the presence of 2 mM NADH (full squares) as in A (traces C-D) and cytochrome c (15 μM) oxidation (open circles) was spectrofluorometrically measured, as described Rustin et al., 1994). The 100% value of cytochrome c oxidation was determined by addition of 2.5 mM laurylmaltoside.
Oxygen consumption of purified mitochondria was measured as in FIG. 5 after addition of succinate+CCCP or NADH, as indicated.

isolated mitochondria = assay: Electron microscopy of isolated mitochondria (matrix swelling); assay type: biochemical; settings: 3 μM Vpr52-96, 5 or 15 min
Text: C. Ultrastructural effects of Vpr on isolated mitochondria.

purified mitochondria [5] = assay: FITC-Vpr52-96 binding to purified mitochondria; settings: 0.5 μM FITC-Vpr52-96
Description: Mitochondria were left unstained (insert in Co.) or exposed to the ΔΨm-insensitive mitochondrial dye MitoTracker® Green (75 nM), alone (MTG) or with 0.5 μM of FITC-Vpr52-96; green fluorescence), in combination with the ΔΨm-sensitive mitochondrial dye MitoTracker® Red (CMXRos; red Fluorescence) followed by cytofluorometric two-color analysis. Numbers indicate the percentage of mitochondria in each quadrant.
Mitochondria were incubated with the indicated inhibitors, and then exposed for 30 min at RT with 5 μM biotinylated Vpr52-96. Mitochondria were lysed either after incubation with biotinylated Vpr52-96 (upper panel) or lysed before (lower panel) with Tris/HCl as described in materials and methods. Biotinylated Vpr52-96 complexed with its mitochondrial ligands was retained on avidin-agarose and subjected to immunoblot detection of ANT.

ANT [6] = molecular target: T1, ANT; settings: surface plasmon resonance, Jacotot et al. 2000; cited from earlier work

CC[C@H](C)[C@H](NC(=O)[C@H](C)NC(=O)[C@H](CCC(=O)O)NC(=O)[C@@H](NC(=O)CNC(=O)[C@H](C)NC(=O)[C@H](Cc1c[nH]c2ccccc12)NC(=O)[C@@H](NC(=O)[C@@H](N)CC(=O)O)[C@@H](C)O)C(C)C)C(=O)N[C@H](C(=O)N[C@@H](CCCNC(=N)N)C(=O)N[C@H](C(=O)N[C@@H](CC(C)C)C(=O)N[C@@H](CCC(N)=O)C(=O)N[C@@H](CCC(N)=O)C(=O)N[C@@H](CC(C)C)C(=O)N[C@@H](CC(C)C)C(=O)N[C@@H](Cc1ccccc1)C(=O)N[C@H](C(=O)N[C@@H](Cc1c[nH]cn1)C(=O)N[C@@H](Cc1ccccc1)C(=O)N[C@@H](CCCNC(=N)N)C(=O)N[C@H](C(=O)NCC(=O)N[C@@H](CS)C(=O)N[C@@H](CCCNC(=N)N)C(=O)N[C@@H](Cc1c[nH]cn1)C(=O)N[C@@H](CO)C(=O)N[C@@H](CCCNC(=N)N)C(=O)N[C@H](C(=O)NCC(=O)N[C@H](C(=O)N[C@H](C(=O)N[C@@H](CCCNC(=N)N)C(=O)N[C@@H](CCC(N)=O)C(=O)N[C@@H](CCCNC(=N)N)C(=O)N[C@@H](CCCNC(=N)N)C(=O)N[C@@H](C)C(=O)N[C@@H](CCCNC(=N)N)C(=O)N[C@@H](CC(N)=O)C(=O)NCC(=O)N[C@@H](C)C(=O)N[C@@H](CO)C(=O)N[C@@H](CCCNC(=N)N)C(=O)N[C@@H](CO)C(=O)O)[C@@H](C)O)C(C)C)[C@@H](C)CC)[C@@H](C)CC)[C@@H](C)CC)[C@@H](C)CC)[C@@H](C)CC [Vpr52-96]
binding of ANT to immobilized peptide (sensorgram) (ANT [1]): exhibits an increase of binding as a function of time and a positive signal at the start of the dissociation phase | Vpr52-96 binding to membranes, ANT liposomes versus protein-free liposomes (ANT-proteoliposomes): greatly facilitated in liposomes in which ANT has been reconstituted as compared to protein-free liposomes | conductance of channels formed by ANT and Vpr52-96 (ANT [2]; Vpr52-96+ANT 0.4:1 nM): 190±2 pS | mean conductance of Vpr52-96-ANT channels without any further addition (ANT [2]; as restated in Example 4): 190±2 | conductance of channels formed by Vpr52-96 alone (ANT [2]; high doses (80 nM), no ANT): 55±2 pS | channel formation in planar lipid bilayers (ANT [2]; low doses (<1 nM)): incapable of forming channels, unless ANT was present | effect on respiratory control (RC) (purified mitochondria [3]): exhibited a gross deficiency in respiratory control (RC) | respiratory control (RC) value (purified mitochondria [3]; 5.3 in control mitochondria): 1.1 | order of inner and outer MMP (purified mitochondria [4]): causes inner MMP well before OM becomes permeable to exogenous cytochrome c | time to maximal NADH oxidation (purified mitochondria [4]; Vpr52-96 1 μM, 2 mM NADH): 10 min | ultrastructural effect on mitochondria (isolated mitochondria): exhibited matrix swelling before OM rupture became apparent | Vpr52-96 binding to mitochondria relative to ΔΨm loss (purified mitochondria [5]): binds mitochondria before inducing ΔΨm loss | affinity of Vpr C-terminus for purified ANT (ANT [6]): high affinity in the nanomolar range
